Assay results from ChEMBL document CHEMBL1129317, “Novel selective and partial agonists of 5-HT3 receptors. Part 1. Synthesis and biological evaluation of piperazinopyrrolothienopyrazines” (J Med Chem, 1996).

Tests used:
[1] = target: T1, 5-hydroxytryptamine receptor 1A (Homo sapiens, UniProt P08908); assay: Binding affinity for 5-hydroxytryptamine 1A receptor
T1 sequence (P08908 whole entry): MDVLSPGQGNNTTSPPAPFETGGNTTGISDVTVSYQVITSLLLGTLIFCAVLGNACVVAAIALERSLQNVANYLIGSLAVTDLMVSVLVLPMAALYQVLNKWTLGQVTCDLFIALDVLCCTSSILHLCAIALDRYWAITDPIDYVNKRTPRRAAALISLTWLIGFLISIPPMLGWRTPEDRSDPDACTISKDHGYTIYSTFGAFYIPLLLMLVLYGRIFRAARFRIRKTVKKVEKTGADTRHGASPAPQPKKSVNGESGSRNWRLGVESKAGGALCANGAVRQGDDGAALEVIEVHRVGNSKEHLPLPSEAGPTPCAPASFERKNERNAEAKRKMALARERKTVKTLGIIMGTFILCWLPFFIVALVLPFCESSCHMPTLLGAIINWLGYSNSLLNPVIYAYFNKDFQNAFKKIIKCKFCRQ

[2] = target: T2, Serotonin 3 (5-HT3) receptor (Rattus norvegicus) (UniProt P35563+Q9JJ16); assay: Agonistic activity of compound towards 5-hydroxytryptamine 3 receptor in Von Bezold-Jarisch Reflex in rats at 60 (ug/kg), evaluated as change in heart rate; type: functional
[3] = target: T2, Serotonin 3 (5-HT3) receptor (Rattus norvegicus); assay: Antagonistic activity of compound towards 5-hydroxytryptamine 3 receptor in Von Bezold-Jarisch reflex in rats at 60 (ug/kg), evaluated as percent inhibition of bradycardia; type: functional
[4] = target: T2, Serotonin 3 (5-HT3) receptor (Rattus norvegicus); assay: Agonistic activity of compound towards 5-hydroxytryptamine 3 receptor in Von Bezold-Jarisch Reflex in rats at 120 (ug/kg), evaluated as change in heart rate; type: functional
[5] = target: Adenosine receptor A1 (Homo sapiens) (UniProt P30542); assay: Inhibitory activity against Adenosine A1 receptor using [3H]DPCPX at […] (M)
Adenosine receptor A1 (Homo sapiens), sequence (P30542 whole entry): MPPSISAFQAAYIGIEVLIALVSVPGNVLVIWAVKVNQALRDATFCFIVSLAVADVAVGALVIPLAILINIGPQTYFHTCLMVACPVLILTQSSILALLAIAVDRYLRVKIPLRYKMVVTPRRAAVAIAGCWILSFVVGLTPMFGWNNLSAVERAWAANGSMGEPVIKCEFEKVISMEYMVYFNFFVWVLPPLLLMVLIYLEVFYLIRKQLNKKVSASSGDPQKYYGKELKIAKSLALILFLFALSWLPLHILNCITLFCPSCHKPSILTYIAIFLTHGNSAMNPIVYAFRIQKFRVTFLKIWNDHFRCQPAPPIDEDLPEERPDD

[6] = target: Adrenergic receptor alpha-2 (Homo sapiens) (UniProt P08913+P18825+P18089); assay: Inhibitory activity against Alpha-2 adrenergic receptor using [3H]RX-821002 at 10e-5 (M); type: protein assay
[7] = target: Beta-1 adrenergic receptor (Homo sapiens) (UniProt P08588); assay: Inhibitory activity against Beta-1 adrenergic receptor using [3H]CGP-12177 at 10e-5 (M)
Beta-1 adrenergic receptor (Homo sapiens), sequence (P08588 whole entry, looked up): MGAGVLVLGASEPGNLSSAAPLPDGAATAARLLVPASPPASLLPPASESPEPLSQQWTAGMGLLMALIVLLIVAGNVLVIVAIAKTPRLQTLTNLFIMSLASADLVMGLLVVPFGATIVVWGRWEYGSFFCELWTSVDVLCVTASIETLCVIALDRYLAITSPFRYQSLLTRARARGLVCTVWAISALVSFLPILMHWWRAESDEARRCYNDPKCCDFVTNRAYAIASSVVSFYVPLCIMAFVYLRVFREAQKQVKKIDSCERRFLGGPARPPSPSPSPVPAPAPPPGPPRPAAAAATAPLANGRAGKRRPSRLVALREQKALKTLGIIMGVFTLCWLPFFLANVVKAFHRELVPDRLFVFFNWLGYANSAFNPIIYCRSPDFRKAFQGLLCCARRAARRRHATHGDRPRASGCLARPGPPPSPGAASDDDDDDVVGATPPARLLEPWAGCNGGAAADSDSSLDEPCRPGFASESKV

[8] = target: Adrenergic receptor alpha-1 (Homo sapiens) (UniProt P35348+P25100+P35368); assay: Inhibitory activity against Alpha-1 adrenergic receptor using [3H]-prazosin at 10e-5 (M); type: protein assay
[9] = target: T3, GABA-A receptor; anion channel (Homo sapiens) (UniProt P14867+P47870+P18507+P28472+P48169+Q99928+Q9UN88+P34903+O00591+O14764+Q8N1C3+P18505+P78334+P47869+P31644+Q16445); assay: Inhibition of [3H]flunitrazepam binding to GABA-A central Benzodiazepine receptor at 10e-5 M; type: protein-complex assay
[10] = Inhibition of [3H]PK11195 binding to peripheral Benzodiazepine receptor at 10e-5 M
[11] = target: Beta-2 adrenergic receptor (Homo sapiens) (UniProt P07550); assay: Inhibitory activity against Beta-2 adrenergic receptor using [3H]CGP-12177 at […] (M)
Beta-2 adrenergic receptor (Homo sapiens), sequence (P07550 whole entry, looked up): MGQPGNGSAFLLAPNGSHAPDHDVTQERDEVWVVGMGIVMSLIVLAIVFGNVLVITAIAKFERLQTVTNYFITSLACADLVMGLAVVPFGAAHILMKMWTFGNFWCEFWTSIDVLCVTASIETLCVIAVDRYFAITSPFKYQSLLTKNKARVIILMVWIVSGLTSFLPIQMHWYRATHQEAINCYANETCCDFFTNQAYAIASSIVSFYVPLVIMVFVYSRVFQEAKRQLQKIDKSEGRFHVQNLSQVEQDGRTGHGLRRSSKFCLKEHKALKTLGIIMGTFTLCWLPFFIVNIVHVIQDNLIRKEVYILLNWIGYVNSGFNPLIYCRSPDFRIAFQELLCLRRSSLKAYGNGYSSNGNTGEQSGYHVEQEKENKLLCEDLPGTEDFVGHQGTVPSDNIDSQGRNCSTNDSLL

[12] = target: Angiotensin II receptor (Homo sapiens) (UniProt P30556+P50052); assay: Inhibitory activity against Angiotensin II receptor using [3H]Angiotensin II at […] (M); type: protein assay
[13] = target: Cysteinyl leukotriene receptor 1 (Homo sapiens) (UniProt Q9Y271); assay: Inhibitory activity against Cysteinyl leukotriene D4 receptor using [3H]- LTD4 at […] (M)
Cysteinyl leukotriene receptor 1 (Homo sapiens), sequence (Q9Y271 whole entry): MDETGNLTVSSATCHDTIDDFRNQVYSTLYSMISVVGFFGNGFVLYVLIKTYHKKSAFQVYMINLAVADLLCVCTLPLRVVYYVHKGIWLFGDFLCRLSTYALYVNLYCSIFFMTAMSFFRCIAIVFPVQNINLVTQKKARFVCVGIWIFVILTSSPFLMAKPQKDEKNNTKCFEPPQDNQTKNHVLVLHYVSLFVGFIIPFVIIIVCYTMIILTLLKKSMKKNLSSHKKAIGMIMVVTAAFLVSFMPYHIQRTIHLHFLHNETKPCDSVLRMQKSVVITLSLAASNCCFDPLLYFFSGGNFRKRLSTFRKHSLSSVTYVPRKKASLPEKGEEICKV

[14] = target: Gastrin/cholecystokinin type B receptor (Homo sapiens) (UniProt P32239); assay: Inhibitory activity against Cholecystokinin type B receptor using [3H]CCK-8 at […] (M)
Gastrin/cholecystokinin type B receptor (Homo sapiens), sequence (P32239 whole entry): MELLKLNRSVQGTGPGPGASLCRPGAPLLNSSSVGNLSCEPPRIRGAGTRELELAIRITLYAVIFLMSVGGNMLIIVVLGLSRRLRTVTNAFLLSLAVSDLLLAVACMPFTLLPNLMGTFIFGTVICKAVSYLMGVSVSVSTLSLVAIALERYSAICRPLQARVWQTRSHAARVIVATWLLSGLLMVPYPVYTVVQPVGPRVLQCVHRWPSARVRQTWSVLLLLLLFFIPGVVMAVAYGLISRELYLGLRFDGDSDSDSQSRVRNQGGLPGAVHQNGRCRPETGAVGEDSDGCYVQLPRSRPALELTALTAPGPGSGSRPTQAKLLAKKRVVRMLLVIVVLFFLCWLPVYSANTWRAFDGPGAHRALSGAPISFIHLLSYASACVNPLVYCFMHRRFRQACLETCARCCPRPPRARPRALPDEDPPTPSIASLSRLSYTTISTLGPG

[15] = target: D(2) dopamine receptor (Homo sapiens) (UniProt P14416); assay: (§1) In vitro displacement from Dopamine receptor D2; settings: concentration not given here
D(2) dopamine receptor (Homo sapiens), sequence (P14416 whole entry): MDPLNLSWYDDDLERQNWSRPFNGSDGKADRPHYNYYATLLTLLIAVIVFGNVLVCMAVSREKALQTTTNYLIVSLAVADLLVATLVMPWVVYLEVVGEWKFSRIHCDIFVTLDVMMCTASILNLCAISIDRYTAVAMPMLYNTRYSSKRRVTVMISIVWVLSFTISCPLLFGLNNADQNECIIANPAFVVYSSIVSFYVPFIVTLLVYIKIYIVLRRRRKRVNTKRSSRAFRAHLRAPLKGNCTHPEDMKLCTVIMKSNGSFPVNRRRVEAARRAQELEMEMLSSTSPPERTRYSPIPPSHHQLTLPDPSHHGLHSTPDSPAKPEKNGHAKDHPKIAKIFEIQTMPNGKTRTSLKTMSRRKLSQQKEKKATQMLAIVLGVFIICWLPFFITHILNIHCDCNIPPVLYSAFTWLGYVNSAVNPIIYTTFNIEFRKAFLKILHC

[16] = target: T3, GABA-A receptor; anion channel (Homo sapiens); assay: Inhibitory activity against Gamma-aminobutyric acid A (GABA-A) receptor using [3H]-muscimol at 10e-5 M; type: protein-complex assay
[17] = target: Insulin receptor (Homo sapiens) (UniProt P06213); assay: Displacement of [3H]insulin from Insulin receptor at 10e-5 M
[18] = target: Muscarinic acetylcholine receptor M1 (Homo sapiens) (UniProt P11229); assay: Inhibitory activity against Muscarinic acetylcholine receptor M1 using [3H]pirenzepine at […] (M)
Muscarinic acetylcholine receptor M1 (Homo sapiens), sequence (P11229 whole entry): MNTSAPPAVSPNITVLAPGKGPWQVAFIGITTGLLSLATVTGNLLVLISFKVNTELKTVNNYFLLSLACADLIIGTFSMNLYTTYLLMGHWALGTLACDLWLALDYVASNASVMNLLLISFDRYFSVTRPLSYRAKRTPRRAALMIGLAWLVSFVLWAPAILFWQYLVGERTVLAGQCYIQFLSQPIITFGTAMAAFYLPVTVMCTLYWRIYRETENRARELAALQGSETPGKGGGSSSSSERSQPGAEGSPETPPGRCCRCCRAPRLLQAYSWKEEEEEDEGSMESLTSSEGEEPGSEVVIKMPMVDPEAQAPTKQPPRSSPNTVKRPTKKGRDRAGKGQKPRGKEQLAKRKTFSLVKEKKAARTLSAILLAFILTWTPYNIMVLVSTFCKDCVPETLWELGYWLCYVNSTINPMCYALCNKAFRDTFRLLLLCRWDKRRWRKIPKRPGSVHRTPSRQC

[19] = target: Neuropeptide Y receptor type 1 (Homo sapiens) (UniProt P25929); assay: Inhibitory activity against Neuropeptide Y receptor type 1 using [3H]-NPY at 10e5 (M)
Neuropeptide Y receptor type 1 (Homo sapiens), sequence (P25929 whole entry): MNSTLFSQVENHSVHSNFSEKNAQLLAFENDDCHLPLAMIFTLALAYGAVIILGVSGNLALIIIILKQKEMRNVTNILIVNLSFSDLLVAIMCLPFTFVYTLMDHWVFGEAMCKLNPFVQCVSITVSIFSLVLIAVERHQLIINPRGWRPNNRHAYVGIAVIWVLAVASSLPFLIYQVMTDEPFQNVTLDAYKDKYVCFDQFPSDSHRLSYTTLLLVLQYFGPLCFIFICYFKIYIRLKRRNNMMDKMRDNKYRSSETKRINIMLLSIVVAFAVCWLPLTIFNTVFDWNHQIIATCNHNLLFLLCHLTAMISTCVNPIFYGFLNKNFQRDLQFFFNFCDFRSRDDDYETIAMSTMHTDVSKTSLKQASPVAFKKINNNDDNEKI

[20] = target: Muscarinic acetylcholine receptor M3 (Homo sapiens) (UniProt P20309); assay: Inhibitory activity against Muscarinic acetylcholine receptor M3 using [3H]NMS at […] (M)
[21] = target: Muscarinic acetylcholine receptor M2 (Homo sapiens) (UniProt P08172); assay: Inhibitory activity against Muscarinic acetylcholine receptor M2 using [3H]NMS at […] (M)
[22] = target: Kappa-type opioid receptor (Homo sapiens) (UniProt P41145); assay: Inhibitory activity against Opioid receptor kappa 1 using [3H]U-69593 at 10e-5 (M)
Kappa-type opioid receptor (Homo sapiens), sequence (P41145 whole entry): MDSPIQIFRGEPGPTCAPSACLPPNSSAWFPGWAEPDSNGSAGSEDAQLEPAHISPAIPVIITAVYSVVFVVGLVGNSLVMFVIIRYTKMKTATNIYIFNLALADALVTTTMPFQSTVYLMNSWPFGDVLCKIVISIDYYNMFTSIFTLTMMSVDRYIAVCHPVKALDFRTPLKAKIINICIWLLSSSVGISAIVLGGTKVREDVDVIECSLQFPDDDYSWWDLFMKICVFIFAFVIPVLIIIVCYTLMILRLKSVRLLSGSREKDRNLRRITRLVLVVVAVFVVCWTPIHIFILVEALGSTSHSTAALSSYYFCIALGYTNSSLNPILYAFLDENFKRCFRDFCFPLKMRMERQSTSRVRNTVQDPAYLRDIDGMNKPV

[23] = target: Kappa-type opioid receptor (Homo sapiens) (UniProt P41145); assay: Inhibitory activity against Opioid receptor kappa 1 using [3H]U-69593 at 10e-7 (M)
[24] = target: Mu-type opioid receptor (Homo sapiens) (UniProt P35372); assay: Inhibitory activity against Opioid receptor mu 1 using [3H]DAMGO at 10e-5 (M)
Mu-type opioid receptor (Homo sapiens), sequence (P35372 whole entry): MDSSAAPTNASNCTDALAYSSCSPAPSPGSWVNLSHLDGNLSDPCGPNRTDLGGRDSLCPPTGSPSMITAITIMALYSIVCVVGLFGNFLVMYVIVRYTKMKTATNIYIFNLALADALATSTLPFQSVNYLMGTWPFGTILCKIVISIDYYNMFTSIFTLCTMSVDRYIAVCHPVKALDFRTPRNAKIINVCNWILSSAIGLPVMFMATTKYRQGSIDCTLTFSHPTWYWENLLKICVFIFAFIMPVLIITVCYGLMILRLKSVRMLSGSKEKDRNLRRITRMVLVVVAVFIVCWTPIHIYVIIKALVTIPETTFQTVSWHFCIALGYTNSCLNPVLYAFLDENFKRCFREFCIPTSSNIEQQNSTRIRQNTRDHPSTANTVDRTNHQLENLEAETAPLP

[25] = target: Platelet-activating factor receptor (Homo sapiens) (UniProt P25105); assay: Inhibitory activity against Platelet activating factor receptor using [3H]PAF at […] (M)
[26] = target: Glutamate receptor ionotropic AMPA (Homo sapiens) (UniProt P48058+P42263+P42262+P42261); assay: Inhibitory activity against Quisqualate receptor using [3H]AMPA at […] (M); type: protein-complex assay
[27] = target: Tumor necrosis factor receptor superfamily member 1A (Homo sapiens) (UniProt P19438); assay: Inhibitory activity against TNF using [125]TNF at 10e-5 (M)
[28] = target: Glutamate [NMDA] receptor (Homo sapiens) (UniProt Q05586+Q12879+Q13224+O15399+O60391+Q14957+Q8TCU5); assay: Inhibitory activity against NMDA using [3H]CGS-19,755 at […] (M); type: protein-complex assay
[29] = target: 5-hydroxytryptamine receptor 1B (Rattus norvegicus, UniProt P28564); assay: Binding affinity for 5-hydroxytryptamine 1B receptor
5-hydroxytryptamine receptor 1B, sequence (P28564 whole entry): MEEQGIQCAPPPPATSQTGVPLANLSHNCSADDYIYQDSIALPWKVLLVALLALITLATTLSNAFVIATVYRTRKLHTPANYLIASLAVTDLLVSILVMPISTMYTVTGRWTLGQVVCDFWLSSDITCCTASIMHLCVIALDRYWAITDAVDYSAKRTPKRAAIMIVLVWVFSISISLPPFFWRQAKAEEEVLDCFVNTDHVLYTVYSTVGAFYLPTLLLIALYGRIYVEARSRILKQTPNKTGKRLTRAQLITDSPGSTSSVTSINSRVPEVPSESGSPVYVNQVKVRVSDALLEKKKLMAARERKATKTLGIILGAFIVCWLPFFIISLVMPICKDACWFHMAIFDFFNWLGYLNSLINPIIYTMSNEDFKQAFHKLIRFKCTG

[30] = target: 5-hydroxytryptamine receptor 2A (Bos taurus, UniProt Q75Z89); assay: Binding affinity towards 5-hydroxytryptamine 2A receptor
[31] = target: D(2) dopamine receptor (Homo sapiens) (UniProt P14416); assay: as §1; settings: concentration not given here; remark: listed apart in the source
[32] = target: Leukotriene B4 receptor 1 (Homo sapiens) (UniProt Q15722); assay: Inhibitory activity against Leukotriene B4 receptor using [3H]- LTB4 at […] (M)
Leukotriene B4 receptor 1 (Homo sapiens), sequence (Q15722 whole entry): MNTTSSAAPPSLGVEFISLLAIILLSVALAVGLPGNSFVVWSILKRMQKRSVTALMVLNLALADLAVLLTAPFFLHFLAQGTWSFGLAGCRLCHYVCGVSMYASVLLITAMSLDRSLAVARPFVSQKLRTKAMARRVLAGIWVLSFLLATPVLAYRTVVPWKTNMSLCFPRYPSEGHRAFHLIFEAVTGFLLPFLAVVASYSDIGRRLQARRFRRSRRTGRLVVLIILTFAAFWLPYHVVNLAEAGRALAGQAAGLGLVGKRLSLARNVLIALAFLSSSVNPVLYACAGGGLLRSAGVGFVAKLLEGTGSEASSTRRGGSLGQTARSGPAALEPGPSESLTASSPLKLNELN

Question: Which IC50 [1] does the source give for `c1ccc(CN2CCN(c3nc4ccsc4n4cccc34)CC2)cc1` here?
Answer: 398 nM

Question: What about the Change [2] of the same molecule?
Answer: 0%

Question: What about the Change [3] of the same molecule?
Answer: 40%

Question: What about the Change [4] of the same molecule?
Answer: 42%

Question: And the inhibition [5]?
Answer: 23%

Question: What about the inhibition [6] of the same molecule?
Answer: 29%

Question: And the inhibition [7]?
Answer: 21%

Question: And the inhibition [8]?
Answer: 26%

Question: What about the inhibition [9] of the same molecule?
Answer: 5%

Question: And the inhibition [10]?
Answer: 34%

Question: What about the inhibition [11] of the same molecule?
Answer: 19%

Question: What about the inhibition [12] of the same molecule?
Answer: 18%

Question: And the inhibition [13]?
Answer: 1%

Question: What about the inhibition [14] of the same molecule?
Answer: 18%

Question: And the inhibition [15]?
Answer: 5%

Question: And the inhibition [16]?
Answer: 31%

Question: And the inhibition [17]?
Answer: 15%

Question: And the inhibition [18]?
Answer: 29%

Question: What about the inhibition [19] of the same molecule?
Answer: 4%

Question: What about the inhibition [20] of the same molecule?
Answer: 20%

Question: What about the inhibition [21] of the same molecule?
Answer: 5%

Question: What about the inhibition [22] of the same molecule?
Answer: 55%

Question: And the inhibition [23]?
Answer: 10%

Question: And the inhibition [24]?
Answer: 29%

Question: And the inhibition [25]?
Answer: 2%

Question: And the inhibition [26]?
Answer: 24%

Question: What about the inhibition [27] of the same molecule?
Answer: 7%

Question: And the inhibition [28]?
Answer: 19%

Question: What about the IC50 [29] of the same molecule?
Answer: 1020 nM

Question: What about the IC50 [30] of the same molecule?
Answer: 4.37 µM

Question: And the inhibition [31]?
Answer: 86%

Question: What about the inhibition [32] of the same molecule?
Answer: 17%
